Reference: publication PMC6580371 (ACS Medicinal Chemistry Letters, 2019)
Like-named read-outs stand apart in the source and are kept apart here.

What was measured:
[1] = type: in vivo; settings: all species (rat, dog, monkey)
in vivo [2] = settings: dog, po, 2 mg/kg
in vivo [3] = settings: monkey, iv
[4] = type: in vitro ADME; settings: rat
[5] = type: in vitro ADME; settings: monkey
[6] = type: in vitro ADME; settings: human

O=C(N[C@H]1CCc2cc(F)cc(F)c2NC1=O)c1n[nH]c(Cc2ccccc2)n1 [Compound 6, (S)-5-benzyl-N-(7,9-difluoro-2-oxo-2,3,4,5-tetrahydro-1H-benzo[b]azepin-3-yl)-1H-1,2,4-triazole-3-carboxamide]
clearance as % liver blood flow [1]: ≤ 35 % liver blood flow
Cmax (in vivo [2]): 910 ± 130 ng/mL
clearance (in vivo [3]): 6.4 ± 0.5 mL/min/kg
turnover in hepatocytes [4]: moderate turnover
turnover in hepatocytes [5]: low turnover
turnover in hepatocytes [6]: low turnover
predicted human clearance: low clearance
predicted human volume: moderate volume
predicted human AUC (40 mg twice daily): 1.7 µg·h/mL
predicted human AUC (273 mg daily): 11.7 µg·h/mL
predicted human terminal half-life (human): ~3.3 h
